Test system: 186277-243-T-J2-PDC spheroids with HUVEC/MSC, viability
Test: Anticancer human tumor 186277-243-T-J2-PDC patient-derived colon adenocarcinoma cell line growth inhibition [CLK]
Settings: for IC50: curve of first compound; for viability, T/C: stronger effect = lower value
Summary of the method: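 Multi-cell-type spheroids combined patient-derived tumor cells with HUVEC endothelial cells and human mesenchymal stem cells. Paired agents were dosed in half-log steps down from about clinical Cmax, or from 10 microM where Cmax was unknown.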

[1] = second compound 0.0316 µM, first compound 0.0316 µM
[2] = second compound 0.0316 µM, first compound 0.1 µM
[3] = second compound 0.0316 µM, first compound 0.316 µM
[4] = second compound 0.0316 µM, first compound 1 µM
[5] = second compound 0.0316 µM, first compound 3.16 µM
[6] = second compound 0.0316 µM, first compound 10 µM
[7] = second compound 0.1 µM, first compound 0.0316 µM
[8] = second compound 0.1 µM, first compound 0.1 µM
[9] = second compound 0.1 µM, first compound 0.316 µM
[10] = second compound 0.1 µM, first compound 1 µM
[11] = second compound 0.1 µM, first compound 3.16 µM
[12] = second compound 0.1 µM, first compound 10 µM
[13] = second compound 0.316 µM, first compound 0.0316 µM
[14] = second compound 0.316 µM, first compound 0.1 µM
[15] = second compound 0.316 µM, first compound 0.316 µM
[16] = second compound 0.316 µM, first compound 1 µM
[17] = second compound 0.316 µM, first compound 3.16 µM
[18] = second compound 0.316 µM, first compound 10 µM
[19] = second compound 1 µM, first compound 0.0316 µM
[20] = second compound 1 µM, first compound 0.1 µM
[21] = second compound 1 µM, first compound 0.316 µM
[22] = second compound 1 µM, first compound 1 µM
[23] = second compound 1 µM, first compound 3.16 µM
[24] = second compound 1 µM, first compound 10 µM
[25] = second compound 3.16 µM, first compound 0.0316 µM
[26] = second compound 3.16 µM, first compound 0.1 µM
[27] = second compound 3.16 µM, first compound 0.316 µM
[28] = second compound 3.16 µM, first compound 1 µM
[29] = second compound 3.16 µM, first compound 3.16 µM
[30] = second compound 3.16 µM, first compound 10 µM
[31] = second compound 10 µM, first compound 0.0316 µM
[32] = second compound 10 µM, first compound 0.1 µM
[33] = second compound 10 µM, first compound 0.316 µM
[34] = second compound 10 µM, first compound 1 µM
[35] = second compound 10 µM, first compound 3.16 µM
[36] = second compound 10 µM, first compound 10 µM
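Also: compound exposure lasted seven days before readout.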
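For viability, T/C in this document: 100% = DMSO vehicle control wells.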

`CC1COCCN1c1cc(C2(S(C)(=N)=O)CC2)nc(-c2ccnc3[nH]ccc23)n1` (stereo unspecified) + CN1CCN(c2cc(C(=O)Nc3cc4cc(-c5cnn(C)c5)ccc4cn3)ccn2)CC1 was tested, and the IC50 (second compound 0.0316 µM) was 2.25 µM, the IC50 (second compound 0.1 µM) was 1.32 µM and the IC50 (second compound 0.316 µM) was < 0.0316 µM. The IC50 (second compound 1 µM) was < 0.0316 µM, the IC50 (second compound 3.16 µM) was < 0.0316 µM and the IC50 (second compound 10 µM) was < 0.0316 µM. For the same compound, the viability, T/C [1] was 93.4%, the viability, T/C [2] was 86.8% and the viability, T/C [3] was 105%. For the same compound, the viability, T/C [4] was 95%, the viability, T/C [5] was 31.2% and the viability, T/C [6] was 11.2%. For the same compound, the viability, T/C [7] was 76.9%, the viability, T/C [8] was 80.5% and the viability, T/C [9] was 74.2%. It also gave a viability, T/C [10] of 59.1%, a viability, T/C [11] of 22.6% and a viability, T/C [12] of 10.5%. It also gave a viability, T/C [13] of 23.9%, a viability, T/C [14] of 25.9% and a viability, T/C [15] of 24.3%. The viability, T/C [16] was 24.7%, the viability, T/C [17] was 19.7% and the viability, T/C [18] was 12.6%. It also gave a viability, T/C [19] of 0.89%, a viability, T/C [20] of 0.78% and a viability, T/C [21] of 0.7%. The viability, T/C [22] was 1.08%, the viability, T/C [23] was 1.18% and the viability, T/C [24] was 1.33%. The viability, T/C [25] was 1.91%, the viability, T/C [26] was 1.72% and the viability, T/C [27] was 1.28%. The viability, T/C [28] was 1.01%, the viability, T/C [29] was 1.48% and the viability, T/C [30] was 2.05%. It also gave a viability, T/C [31] of 0.93%, a viability, T/C [32] of 0.87% and a viability, T/C [33] of 1.19%. For the same compound, the viability, T/C [34] was 1.26%, the viability, T/C [35] was 1.01% and the viability, T/C [36] was 1.14%.
With `CC(CO)NC(=O)c1cc(-c2ccc(Cl)cc2)nn(-c2cnn(C)c2)c1=O` (stereo unspecified) + CNC(=O)c1ccc(Nc2nc(OC3CCCC3)c3c(-c4ccc5nc(C)oc5c4)c[nH]c3n2)c(OC)c1 the IC50 (second compound 0.0316 µM) was > 10 µM, the IC50 (second compound 0.1 µM) was > 10 µM and the IC50 (second compound 0.316 µM) was < 0.0316 µM. For the same compound, the IC50 (second compound 1 µM) was < 0.0316 µM, the IC50 (second compound 3.16 µM) was < 0.0316 µM and the IC50 (second compound 10 µM) was < 0.0316 µM. It also gave a viability, T/C [1] of 109%, a viability, T/C [2] of 99.1% and a viability, T/C [3] of 101%. For the same compound, the viability, T/C [4] was 84.7%, the viability, T/C [5] was 105% and the viability, T/C [6] was 120%. It also gave a viability, T/C [7] of 75.8%, a viability, T/C [8] of 70.5% and a viability, T/C [9] of 72.3%. For the same compound, the viability, T/C [10] was 71.8%, the viability, T/C [11] was 74% and the viability, T/C [12] was 81.5%. It also gave a viability, T/C [13] of 50%, a viability, T/C [14] of 45.4% and a viability, T/C [15] of 43.1%. The viability, T/C [16] was 49%, the viability, T/C [17] was 49.6% and the viability, T/C [18] was 47.8%. For the same compound, the viability, T/C [19] was 28.9%, the viability, T/C [20] was 31.6% and the viability, T/C [21] was 29.6%. The viability, T/C [22] was 32.4%, the viability, T/C [23] was 35.6% and the viability, T/C [24] was 36%. It also gave a viability, T/C [25] of 33.3%, a viability, T/C [26] of 30.7% and a viability, T/C [27] of 29.1%. For the same compound, the viability, T/C [28] was 31.7%, the viability, T/C [29] was 32% and the viability, T/C [30] was 35%. It also gave a viability, T/C [31] of 32.5%, a viability, T/C [32] of 31.4% and a viability, T/C [33] of 32%. The viability, T/C [34] was 31.4%, the viability, T/C [35] was 34.3% and the viability, T/C [36] was 31.5%.
`COc1cccc2c1C(=O)c1c(O)c3c(c(O)c1C2=O)CC(O)(C(=O)CO)CC3OC1CC(N)C(O)C(C)O1` (stereo unspecified) + CNC(=O)c1ccc(Nc2nc(OC3CCCC3)c3c(-c4ccc5nc(C)oc5c4)c[nH]c3n2)c(OC)c1 gave an IC50 (second compound 0.0316 µM) of 0.161 µM, an IC50 (second compound 0.1 µM) of 0.138 µM and an IC50 (second compound 0.316 µM) of 0.066 µM. The IC50 (second compound 1 µM) was < 0.0316 µM, the IC50 (second compound 3.16 µM) was < 0.0316 µM and the IC50 (second compound 10 µM) was < 0.0316 µM. It also gave a viability, T/C [1] of 112%, a viability, T/C [2] of 73.5% and a viability, T/C [3] of 17.3%. The viability, T/C [4] was 0.3%, the viability, T/C [5] was 3.88% and the viability, T/C [6] was 1.97%. It also gave a viability, T/C [7] of 72.2%, a viability, T/C [8] of 64.4% and a viability, T/C [9] of 13%. For the same compound, the viability, T/C [10] was 0.2%, the viability, T/C [11] was 1.92% and the viability, T/C [12] was 4.82%. The viability, T/C [13] was 52.4%, the viability, T/C [14] was 48.7% and the viability, T/C [15] was 10.6%. For the same compound, the viability, T/C [16] was 1.25%, the viability, T/C [17] was 2.88% and the viability, T/C [18] was 1.07%. It also gave a viability, T/C [19] of 40.7%, a viability, T/C [20] of 27.5% and a viability, T/C [21] of 3.75%. The viability, T/C [22] was 2.42%, the viability, T/C [23] was 6.62% and the viability, T/C [24] was 3.37%. The viability, T/C [25] was 34.2%, the viability, T/C [26] was 19.9% and the viability, T/C [27] was 3.14%. The viability, T/C [28] was 2.25%, the viability, T/C [29] was 1.39% and the viability, T/C [30] was 1.97%. The viability, T/C [31] was 34.8%, the viability, T/C [32] was 16.9% and the viability, T/C [33] was 4.4%. The viability, T/C [34] was 2.28%, the viability, T/C [35] was 3.08% and the viability, T/C [36] was 3.22%.

Source: PubChem BioAssay AID2060625 (Molecular Pharmacology Branch, DTP, NCI, 2025)
